Assays:
Experiment in all cases: relative viability (nuclei count vs DMSO), 5 days (fraction); higher = more cells survive
BEN = system: BEN
Outline: (§1)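 Relative viability equals treated-well nuclei counts divided by vehicle-well nuclei counts. Counts came from 4× images of lung cancer cell lines grown in 1536-well plates for 5 days after pin-tool dosing on the day after seeding. Dosing used one drug alone or a fixed anchor-drug dose plus five library-drug doses (not always all listed) in √10 steps, and values are medians of duplicate plates.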

NCI-H1944 = system: NCI-H1944
Outline: as §1

SK-MES-1 = system: SK-MES-1
Outline: as §1

ChaGo-K-1 = system: ChaGo-K-1
Outline: as §1

PC-3 [JPC-3] = system: PC-3 [JPC-3]
Outline: as §1

NCI-H2342 = system: NCI-H2342
Outline: as §1

NCI-H650 = system: NCI-H650
Outline: as §1

NCI-H358 = system: NCI-H358
Outline: as §1

UMC-11 = system: UMC-11
Outline: as §1

NCI-H596 = system: NCI-H596
Outline: as §1

NCI-H661 = system: NCI-H661
Outline: as §1

LXF-289 = system: LXF-289
Outline: as §1

NCI-H2087 = system: NCI-H2087
Outline: as §1

HCC-15 = system: HCC-15
Outline: as §1

H3255 = system: H3255
Outline: as §1

NCI-H838 = system: NCI-H838
Outline: as §1

LU99A = system: LU99A
Outline: as §1

LK-2 = system: LK-2
Outline: as §1

LC-2-ad = system: LC-2-ad
Outline: as §1

NCI-H1666 = system: NCI-H1666
Outline: as §1

LCLC-97TM1 = system: LCLC-97TM1
Outline: as §1

HCC-78 = system: HCC-78
Outline: as §1

NCI-H322M = system: NCI-H322M
Outline: as §1

NCI-H1651 = system: NCI-H1651
Outline: as §1

SMILES: COc1cc(N2CCC(C(N)=O)CC2)ccc1Nc1nc(N)c(Cl)c(Nc2ccccc2S(=O)(=O)C(C)C)n1 [HG-5-88-01] + CC(=O)Nc1cccc(-n2c(=O)n(C3CC3)c(=O)c3c(Nc4ccc(I)cc4F)n(C)c(=O)c(C)c32)c1 [Trametinib] (partner 0.02 µM)
- relative viability (BEN; first compound 0.04 µM): 1.04
- relative viability (BEN; first compound 0.1265 µM): 1.12
- relative viability (BEN; first compound 0.4 µM): 1.16
- relative viability (BEN; first compound 1.265 µM): 0.76
- relative viability (BEN; first compound 4 µM): 1.06
- relative viability (NCI-H1944; first compound 0.04 µM): 0.386
- relative viability (NCI-H1944; first compound 0.1265 µM): 0.48
- relative viability (NCI-H1944; first compound 0.4 µM): 0.396
- relative viability (NCI-H1944; first compound 1.265 µM): 0.398
- relative viability (NCI-H1944; first compound 4 µM): 0.398
- relative viability (SK-MES-1; first compound 0.04 µM): 0.535
- relative viability (SK-MES-1; first compound 0.1265 µM): 0.54
- relative viability (SK-MES-1; first compound 0.4 µM): 0.503
- relative viability (SK-MES-1; first compound 1.265 µM): 0.498
- relative viability (SK-MES-1; first compound 4 µM): 0.619
- relative viability (ChaGo-K-1; first compound 0.04 µM): 0.868
- relative viability (ChaGo-K-1; first compound 0.1265 µM): 0.908
- relative viability (ChaGo-K-1; first compound 0.4 µM): 0.843
- relative viability (ChaGo-K-1; first compound 1.265 µM): 0.925
- relative viability (ChaGo-K-1; first compound 4 µM): 0.875
- relative viability (PC-3 [JPC-3]; first compound 0.04 µM): 0.708
- relative viability (PC-3 [JPC-3]; first compound 0.1265 µM): 0.738
- relative viability (PC-3 [JPC-3]; first compound 0.4 µM): 0.684
- relative viability (PC-3 [JPC-3]; first compound 1.265 µM): 0.448
- relative viability (PC-3 [JPC-3]; first compound 4 µM): 0.361
- relative viability (NCI-H2342; first compound 0.04 µM): 0.846
- relative viability (NCI-H2342; first compound 0.1265 µM): 0.939
- relative viability (NCI-H2342; first compound 0.4 µM): 0.865
- relative viability (NCI-H2342; first compound 4 µM): 0.969
- relative viability (NCI-H650; first compound 0.04 µM): 1.09
- relative viability (NCI-H650; first compound 0.1265 µM): 1.11
- relative viability (NCI-H650; first compound 0.4 µM): 0.987
- relative viability (NCI-H650; first compound 1.265 µM): 0.696
- relative viability (NCI-H650; first compound 4 µM): 0.786
- relative viability (NCI-H358; first compound 0.04 µM): 0.123
- relative viability (NCI-H358; first compound 0.1265 µM): 0.124
- relative viability (NCI-H358; first compound 0.4 µM): 0.131
- relative viability (NCI-H358; first compound 1.265 µM): 0.106
- relative viability (NCI-H358; first compound 4 µM): 0.105
- relative viability (UMC-11; first compound 0.04 µM): 0.532
- relative viability (UMC-11; first compound 0.1265 µM): 0.861
- relative viability (UMC-11; first compound 0.4 µM): 0.727
- relative viability (UMC-11; first compound 1.265 µM): 0.707
- relative viability (UMC-11; first compound 4 µM): 0.531
- relative viability (NCI-H596; first compound 0.04 µM): 0.901
- relative viability (NCI-H596; first compound 0.1265 µM): 0.794
- relative viability (NCI-H596; first compound 0.4 µM): 0.75
- relative viability (NCI-H596; first compound 1.265 µM): 0.808
- relative viability (NCI-H596; first compound 4 µM): 0.778
- relative viability (NCI-H661; first compound 0.04 µM): 0.591
- relative viability (NCI-H661; first compound 0.1265 µM): 0.666
- relative viability (NCI-H661; first compound 0.4 µM): 0.573
- relative viability (NCI-H661; first compound 1.265 µM): 0.554
- relative viability (NCI-H661; first compound 4 µM): 0.608
- relative viability (LXF-289; first compound 0.04 µM): 0.672
- relative viability (LXF-289; first compound 0.1265 µM): 0.692
- relative viability (LXF-289; first compound 0.4 µM): 0.511
- relative viability (LXF-289; first compound 1.265 µM): 0.677
- relative viability (LXF-289; first compound 4 µM): 0.672
- relative viability (NCI-H2087; first compound 0.04 µM): 0.238
- relative viability (NCI-H2087; first compound 0.1265 µM): 0.218
- relative viability (NCI-H2087; first compound 0.4 µM): 0.194
- relative viability (NCI-H2087; first compound 1.265 µM): 0.15
- relative viability (NCI-H2087; first compound 4 µM): 0.164
- relative viability (HCC-15; first compound 0.04 µM): 0.372
- relative viability (HCC-15; first compound 0.1265 µM): 0.359
- relative viability (HCC-15; first compound 0.4 µM): 0.36
- relative viability (HCC-15; first compound 1.265 µM): 0.314
- relative viability (HCC-15; first compound 4 µM): 0.251
- relative viability (H3255; first compound 0.04 µM): 0.563
- relative viability (H3255; first compound 0.1265 µM): 0.697
- relative viability (H3255; first compound 0.4 µM): 0.619
- relative viability (H3255; first compound 4 µM): 0.539
- relative viability (NCI-H838; first compound 0.04 µM): 0.518
- relative viability (NCI-H838; first compound 0.1265 µM): 0.439
- relative viability (NCI-H838; first compound 0.4 µM): 0.435
- relative viability (NCI-H838; first compound 1.265 µM): 0.409
- relative viability (NCI-H838; first compound 4 µM): 0.354
- relative viability (LU99A; first compound 0.04 µM): 0.584
- relative viability (LU99A; first compound 0.1265 µM): 0.565
- relative viability (LU99A; first compound 0.4 µM): 0.543
- relative viability (LU99A; first compound 1.265 µM): 0.429
- relative viability (LU99A; first compound 4 µM): 0.493
- relative viability (LK-2; first compound 0.04 µM): 0.927
- relative viability (LK-2; first compound 0.1265 µM): 0.911
- relative viability (LK-2; first compound 0.4 µM): 0.728
- relative viability (LK-2; first compound 4 µM): 0.514
- relative viability (LC-2-ad; first compound 0.04 µM): 0.934
- relative viability (LC-2-ad; first compound 0.1265 µM): 0.86
- relative viability (LC-2-ad; first compound 0.4 µM): 0.865
- relative viability (LC-2-ad; first compound 1.265 µM): 0.896
- relative viability (LC-2-ad; first compound 4 µM): 0.993
- relative viability (NCI-H1666; first compound 0.04 µM): 0.942
- relative viability (NCI-H1666; first compound 0.1265 µM): 0.918
- relative viability (NCI-H1666; first compound 0.4 µM): 0.853
- relative viability (NCI-H1666; first compound 1.265 µM): 0.775
- relative viability (NCI-H1666; first compound 4 µM): 0.621
- relative viability (LCLC-97TM1; first compound 0.04 µM): 0.154
- relative viability (LCLC-97TM1; first compound 0.1265 µM): 0.211
- relative viability (LCLC-97TM1; first compound 0.4 µM): 0.188
- relative viability (LCLC-97TM1; first compound 1.265 µM): 0.147
- relative viability (LCLC-97TM1; first compound 4 µM): 0.136
- relative viability (HCC-78; first compound 0.04 µM): 0.737
- relative viability (HCC-78; first compound 0.1265 µM): 0.455
- relative viability (HCC-78; first compound 0.4 µM): 0.492
- relative viability (HCC-78; first compound 1.265 µM): 0.289
- relative viability (HCC-78; first compound 4 µM): 0.348
- relative viability (NCI-H322M; first compound 0.04 µM): 0.486
- relative viability (NCI-H322M; first compound 0.1265 µM): 0.459
- relative viability (NCI-H322M; first compound 0.4 µM): 0.524
- relative viability (NCI-H322M; first compound 1.265 µM): 0.36
- relative viability (NCI-H322M; first compound 4 µM): 0.451
- relative viability (NCI-H1651; first compound 0.04 µM): 0.918
- relative viability (NCI-H1651; first compound 0.1265 µM): 0.862
- relative viability (NCI-H1651; first compound 0.4 µM): 0.799
- relative viability (NCI-H1651; first compound 1.265 µM): 0.744
- relative viability (NCI-H1651; first compound 4 µM): 0.957

From the supplement of paper PMC10307832
